# Data published in patent publication US5618685A, “Activation of herpes simplex virus protease by kosmotropes” (priority 1995, dated 1997).
# Counter-ions that a name gives are not always drawn. Like-named read-outs stand apart in the source and are kept apart here.
# Columns and labels:
# HSV-1 protease [1] = target: T1, HSV-1 protease (Human herpesvirus 1, UniProt P10210); assay: biochemical
# Experimental: For experiments examining anion effects, buffer solutions were prepared with the sodium salt of the anion and the pH was adjusted to 7.5 with concentrated HCl where necessary (i.e., citrate, glutamate, malate). An exception was phosphate, where NaH2 PO4 was prepared in the buffer and the pH adjusted upward with NaOH.
# Enzyme activity was measured with the peptide substrates […]-amide (SEQ.ID.NO.:2) and […]-amide (SEQ.ID.NO.:1), using HPLC for the separation of products from substrates as described in Darke et al., 1994, supra. The C-terminal cleavage products of enzymatic hydrolysis are SEKFKMW-amide (SEQ.ID.NO.:3) and […]-amide (SEQ.ID.NO.:4) respectively. Quantitation of the C-terminal cleavage product, containing tryptophan, in the HPLC effluent was with a Hewlett-Packard model 1046A fluorescence detector (excitation at 280 nm, emission at 350 nm). […] Reactions were performed at 37° C. in a pH 7.5 buffer containing 52 mM 4-morpholinoethanesulfonic acid (MES), 52 mM 3-(N-tris(hydroxymethyl)methylamino)-2-hyroxy-propanesulfonic acid (TAPSO) and 100 mM diethanolamine, 1 mM EDTA, 1 mM dithiothreitol, 0.1% bovine serum albumin, and the various additives listed in the Tables. Reactions were initiated by the addition of a stock HSV-1 protease solution (0.625 mg/ml) in the above buffer with no additives to a final concentration of 0.025 mg/ml (0.94 μM) and quenched with the addition of 5% H3 PO4. Activity assays comparing various anion and cosolvents effects were conducted with a substrate concentration of 53 μM. Activity in Tables 1 and 2 is expressed as relative to the case where no additive was present in the reaction mixture.
# HSV-1 protease [2] = target: T1, HSV-1 protease; assay: Susceptibility of HSV-1 protease to trypsin proteolysis (SDS-PAGE); format: biochemical, Herpes Simplex Virus type 1; set-up: Autoprocessing of the precursor to the mature 246 amino acid form of the enzyme; made in house; host or cells: E. coli; settings: trypsin 0.1 mg/ml, 37° C., 60 min; 0.8M citrate
# Experimental: HSV-1 protease was incubated for 60 minutes at 37° C. with or without trypsin, either with or without 0.8M sodium citrate present, as described in Example 3. Samples were analyzed with SDS-PAGE (16% gels) and stained with Coomassie brilliant blue. Lanes 1 and 2, no trypsin added; lanes 3 and 4, trypsin added at 0.1 mg/ml. Lanes 1 and 3, no citrate added; lanes 2 and 4, sodium citrate present at 0.8M during incubation. The arrow on the right indicates the position of 27 kDa, undigested HSV-1 protease. Molecular weight markers are in the leftmost lane, with the corresponding molecular weights marked in kDa.
# In accordance with this invention, the sensitivity of native HSV-1 protease to trypsin was examined as a function of kosmotrope concentration. Following treatment of the enzyme with trypsin for 60 minutes, SDS-PAGE was performed to qualitatively examine the extent of trypsin digestion of the HSV-1 protease.
# Trypsin treatment of the HSV-1 protease (0.15 mg/ml) was performed with 0.1 mg/ml trypsin at 37° C. for 60 min. Trypsin activity s measurements with the fluorogenic substrate BOC-Val-Pro-Arg-7-amino-4-methylcoumarin were performed at 37° C. After trypsin treatment, samples were boiled with SDS gel sample buffer and small volumes of sodium citrate were added to some samples to equalize the extent of band spreading on the gel. […]
# [3] = pH 7.5, read-out: Relative activity of HSV-1 protease
# [4] = anion (Na+ salt) 0.2M, 37° C., pH 7.5, substrate 53 μM, relative to no additive, 200000 µM
# [5] = anion (Na+ salt) 0.8M, 37° C., pH 7.5, substrate 53 μM, relative to no additive, 800000 µM
# [6] = anion (Na+ salt) at ionic strength = 0.8, 37° C., pH 7.5, substrate 53 μM, relative to no additive
# T1 sequence (P10210 1-247): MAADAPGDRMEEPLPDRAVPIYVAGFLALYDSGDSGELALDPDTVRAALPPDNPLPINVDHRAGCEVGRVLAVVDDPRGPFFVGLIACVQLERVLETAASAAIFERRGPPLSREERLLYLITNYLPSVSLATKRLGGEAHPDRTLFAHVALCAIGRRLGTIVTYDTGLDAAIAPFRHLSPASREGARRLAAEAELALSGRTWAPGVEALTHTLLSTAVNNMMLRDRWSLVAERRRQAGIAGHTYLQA
smiles,measurement,setting,value
O=C(O)C[C@H](O)C(=O)O [L-malate],activity at 200000 µM,HSV-1 protease [1]; [3],404%
OC[C@@H](O)[C@@H](O)[C@H](O)[C@@H](O)CO [Sorbitol],effect of co-solvent on HSV-1 protease activity (in words),HSV-1 protease [1],"Activation was observed, albeit to a lesser extent"
"O=S(=O)(O)O [SO4^2-, sulfate]",effect of anion/salt on HSV-1 protease activity (in words),HSV-1 protease [1],strong activation
same,Relative activity of HSV-1 protease,HSV-1 protease [1]; [4],4.70
"Cl [Cl^-, Chloride]",effect of anion/salt on HSV-1 protease activity (in words),HSV-1 protease [1],little effect
same,Relative activity of HSV-1 protease,HSV-1 protease [1]; [4],0.96
same,Relative activity of HSV-1 protease,HSV-1 protease [1]; [5],1.08
O=C(O)C[C@@H](O)C(=O)O [D-malate],activity at 200000 µM,HSV-1 protease [1]; [3],409%
O=C(O)/C=C(/CC(=O)O)C(=O)O [cis-Aconitrate],Relative activity of HSV-1 protease,HSV-1 protease [1]; [6],2.40
same,activity at 200000 µM,HSV-1 protease [1]; [3],506%
"[O-][Cl+3]([O-])([O-])O [ClO4^-, perchlorate]",effect of anion/salt on HSV-1 protease activity (in words),HSV-1 protease [1],inhibitory
same,Relative activity of HSV-1 protease,HSV-1 protease [1]; [4],0.06
same,Relative activity of HSV-1 protease,HSV-1 protease [1]; [5],0.00
CN(C)C=O [Dimethyl formamide],effect of co-solvent on HSV-1 protease activity (in words),HSV-1 protease [1],strongly inactivating
O=P(O)(O)OP(=O)(O)O [HP2 O7^3-],Relative activity of HSV-1 protease,HSV-1 protease [1]; [4],7.32
O=C(O)CCC(=O)O [Succinate],Relative activity of HSV-1 protease,HSV-1 protease [1]; pH 7.5,6.03
same,activity at 200000 µM,HSV-1 protease [1]; [3],397%
F [F^-],effect of anion/salt on HSV-1 protease activity (in words),HSV-1 protease [1],some activation
same,Relative activity of HSV-1 protease,HSV-1 protease [1]; [4],6.15
N.N.O=S(=O)(O)O [(NH4)2 SO4],effect of anion/salt on HSV-1 protease activity (in words),HSV-1 protease [1],slightly less activating
"[Br-].[K+] [Br^-, bromide]",Relative activity of HSV-1 protease,"HSV-1 protease [1]; pH 7.5, 200000 µM",0.23
same,Relative activity of HSV-1 protease,"HSV-1 protease [1]; pH 7.5, 800000 µM",0.07
OCC(O)CO [Glycerol],effect of co-solvent on HSV-1 protease activity (in words),HSV-1 protease [1],"Activation was observed, albeit to a lesser extent"
N[C@H](CCC(=O)O)C(=O)O [D-glutamate],activity at 200000 µM,HSV-1 protease [1]; [3],290%
CCO [Ethanol],effect of co-solvent on HSV-1 protease activity (in words),HSV-1 protease [1],strongly inactivating
same,activity at 2 %,HSV-1 protease [1]; [3],27%
same,activity at 5 %,HSV-1 protease [1]; [3],10%
same,activity at 10 %,HSV-1 protease [1]; [3],0%
C[S+](C)[O-] [Dimethyl sulfoxide],inhibition at 2 %,"HSV-1 protease [1]; read-out: reduction of HSV protease activity, 2% DMSO with 0.8M sodium citrate present",8%
same,inhibition at 2 %,"HSV-1 protease [1]; read-out: reduction of HSV protease activity, 2% DMSO, no kosmotropic anion",37%
O=C(O)CC(C(=O)O)C(O)C(=O)O (centres unmarked) [Isocitrate],Relative activity of HSV-1 protease,HSV-1 protease [1]; [6],3.53
same,activity at 200000 µM,HSV-1 protease [1]; [3],772%
"O=C(O)CC(O)(CC(=O)O)C(=O)O [Citrate, sodium citrate]",effect of anion/salt on HSV-1 protease activity (in words),HSV-1 protease [1],strong activation
same,kcat /KM,HSV-1 protease [1],4500 M⁻¹ s⁻¹
same,amount of peptide cleavage product (SEKFKMW-amide) that accumulated in 60 minutes,"HSV-1 protease [1]; 0.8M sodium citrate in reaction mixture, HSV-1 protease 40 nM",100 pmol
same,amount of peptide cleavage product that accumulated in 1 minute,"HSV-1 protease [1]; 0.8M sodium citrate in reaction mixture, enzyme 0.93 μM",100 pmol
same,Relative activity of HSV-1 protease,HSV-1 protease [1]; [6],4.16
same,fold induction at 800000 µM,"HSV-1 protease [1]; pH 7.5, read-out: enhancement of the observed hydrolytic rate (increase of activity)",202
same,fold induction at 800000 µM,"HSV-1 protease [1]; pH 7.5, read-out: increase of the protease activity (catalytic efficiency)",860
same,susceptibility of HSV-1 protease to trypsin digestion (in words),HSV-1 protease [2],loss in susceptibility of HSV-1 protease to trypsin digestion
"I [I^-, iodide]",effect of anion/salt on HSV-1 protease activity (in words),HSV-1 protease [1],inhibition
same,Relative activity of HSV-1 protease,HSV-1 protease [1]; [4],0.07
same,Relative activity of HSV-1 protease,HSV-1 protease [1]; [5],0.00
same,effect of anion/salt on HSV-1 protease activity (in words),HSV-1 protease [1]; listed as iodide,inhibitory
CC(=O)O [CH3 COO^-],activity at 200000 µM,HSV-1 protease [1]; [3],171%
same,activity at 800000 µM,HSV-1 protease [1]; [3],703%
OCCO [Ethylene glycol],activity at 2 %,HSV-1 protease [1]; [3],63%
same,activity at 5 %,HSV-1 protease [1]; [3],67%
same,activity at 10 %,HSV-1 protease [1]; [3],45%
"O=P(O)(O)O [HPO4^2- /PO4^3-, sodium phosphate]",effect of anion/salt on HSV-1 protease activity (in words),HSV-1 protease [1],strong activation
same,kcat /KM,HSV-1 protease [1]; 0.8M salt present,2200 M⁻¹ s⁻¹
same,Relative activity of HSV-1 protease,HSV-1 protease [1]; [4],5.68
N[C@@H](CCC(=O)O)C(=O)O [L-glutamate],activity at 200000 µM,HSV-1 protease [1]; [3],245%
